According to US11091482B2, “Isoxazolyl-carbonyloxy azabicyclo[3.2.1]octanyl compounds as FXR activators” (ARDELYX, INC., priority 2016, dated 2021):

What was measured:
[1] = system: fibroblast growth factor 19 (FGF19) secretion in human ileum; experiment: Human ileum APECCS (FGF19 secretion); type: cell-based; conditions: for EC50: Fibroblast; for Activity, %: relative to GW4064
[2] = target: human Farnesoid X receptor ligand-binding domain/Gal4 DNA binding domain chimera (Homo sapiens (Human), UniProt Q96RI1); experiment: Cell-based FXR beta-lactamase reporter assay (FXR-UAS-bla HEK 293T cells); conditions: for FXR pEC50 / % Efficacy / EC50: cellular FXR beta-lactamase reporter assay; for FXR pEC50 / EC50: -log EC50; for % Efficacy: extent of activation relative to GW4064; for Emax: HEK-293T, read-out: % Efficacy; for EC50: read-out: FXR pEC50 (converted)
Outline: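 Stable FXR-UAS-bla HEK 293T cells in phenol red-free DMEM with 2% charcoal-stripped FBS were exposed to 3-fold serial dilutions of compound. Beta-lactamase reporter activity was read by CCF4 FRET loss, exciting at 409 nm with blue emission at 447 nm. The FRET change versus concentration was fit to a 3-parameter logistic equation.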

[3] = target: ligand binding domain of human FXR (Homo sapiens (Human), UniProt Q96RI1); experiment: FXR ligand binding assay (LanthaScreen FRET); conditions: for FXR pEC50 / % Efficacy: FXR ligand binding assay; for FXR pEC50: -log EC50; for % Efficacy: extent of activation relative to GW4064; for Emax: read-out: % Efficacy;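 as to all read-outs here: TR-FRET coactivator recruitment: ligand-induced binding of fluorescein-labelled SRC2-2 peptide to GST-tagged FXR LBD detected via Tb anti-GST antibody, serial compound dilutions, 3-parameter logistic fit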
ligand binding domain of human FXR, sequence (Q96RI1 262-486): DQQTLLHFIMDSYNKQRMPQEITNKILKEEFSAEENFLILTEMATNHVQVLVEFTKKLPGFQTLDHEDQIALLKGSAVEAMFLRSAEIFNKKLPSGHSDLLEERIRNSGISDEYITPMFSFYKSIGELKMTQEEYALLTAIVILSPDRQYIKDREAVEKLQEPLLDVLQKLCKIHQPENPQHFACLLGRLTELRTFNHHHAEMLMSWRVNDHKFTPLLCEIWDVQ

human Farnesoid X receptor ligand-binding domain/Gal4 DNA binding domain chimera, sequence (Q96RI1 262-486, change not shown): as the sequence (Q96RI1 262-486) above

Row | SMILES | FXR pEC50 [2] | FXR pEC50 [3] | Emax [2] | EC50 [2] | Emax [3] | other results
1 | CC[C@H]1[C@@H](O)[C@@H]2[C@H](CC[C@]3(C)[C@@H]([C@H](C)CCC(=O)O)CC[C@@H]23)[C@@]2(C)CC[C@@H](O)C[C@@H]12 [OCA, Obeticholic acid] | – | – | – | – | – | EC50 [1]: 501 nM; Activity, % [1]: 82.6 ± 19%
2 | CC(C)(C)c1onc(-c2c(Cl)cccc2Cl)c1C(=O)OC1C[C@H]2CC[C@@H](C1)N2c1nc2c(F)cc(C(=O)O)cc2s1 (single isomer, unassigned) [Compound I-25] | 7.6 | 7.2 | – | – | – | –
3 | O=C(NS(=O)(=O)CC1CC1)c1ccc(N2[C@@H]3CC[C@H]2C[C@H](OC(=O)c2c(-c4c(Cl)cccc4Cl)noc2C2CC2)C3)cc1 [Compound I-49, (1R,3S,5S)-8-[4-(cyclopropylmethanesulfonylcarbamoyl)phenyl]-8-azabicyclo[3.2.1]octan-3-yl 5-cyclopropyl-3-(2,6-dichlorophenyl)-1,2-oxazole-4-carboxylate] | 8.1 | 8 | – | – | – | % Efficacy [2]: 107%; % Efficacy [3]: 128%
4 | O=C(OCCN(CCO)CCO)c1cc(F)c2nc(N3[C@@H]4CC[C@H]3C[C@@H](OC(=O)c3c(-c5c(Cl)cccc5Cl)noc3C3CC3)C4)sc2c1 [Compound I-63, 2-[bis(2-hydroxyethyl)amino]ethyl 2-[(1R,3R,5S)-3-[5-cyclopropyl-3-(2,6-dichlorophenyl)-1,2-oxazole-4-carbonyloxy]-8-azabicyclo[3.2.1]octan-8-yl]-4-fluoro-1,3-benzothiazole-6-carboxylate] | – | >6.5 | 112% | 10000 nM | – | –
5 | Cc1cc(C(=O)O)cc2sc(N3[C@@H]4CC[C@H]3C[C@@H](OC(=O)c3c(-c5c(Cl)cccc5Cl)noc3C3(F)CC3)C4)nc12 [Compound I-59, 2-[(1R,3R,5S)-3-[3-(2,6-dichlorophenyl)-5-(1-fluorocyclopropyl)-1,2-oxazole-4-carbonyloxy]-8-azabicyclo[3.2.1]octan-8-yl]-4-methyl-1,3-benzothiazole-6-carboxylic Acid] | – | – | 105% | 39.8 nM | 95% | –
6 | CC1(c2onc(-c3c(Cl)cccc3Cl)c2C(=O)OC2C[C@H]3CC[C@@H](C2)N3c2nc3c(F)cc(C(=O)O)cc3s2)CC1 (single isomer, unassigned) [Compound I-26] | 7.5 | 7.4 | – | – | – | –
7 | CCCCCS(=O)(=O)NC(=O)c1ccc(N2[C@@H]3CC[C@H]2C[C@@H](OC(=O)c2c(-c4c(Cl)cccc4Cl)noc2C2CC2)C3)cc1 [Compound I-46, (1R,3R,5S)-8-{4-[(pentane-1-sulfonyl)carbamoyl]phenyl}-8-azabicyclo[3.2.1]octan-3-yl 5-cyclopropyl-3-(2,6-dichlorophenyl)-1,2-oxazole-4-carboxylate] | 8.5 | 8.2 | – | – | – | % Efficacy [2]: 110%
8 | CN1c2cc(N3[C@@H]4CC[C@H]3C[C@@H](OC(=O)c3c(-c5c(Cl)cccc5Cl)noc3C3CC3)C4)ccc2C(=O)C1(F)F [Compound I-30, (1R,3R,5S)-8-(2,2-difluoro-1-methyl-3-oxo-2,3-dihydro-1H-indol-6-yl)-8-azabicyclo[3.2.1]octan-3-yl 5-cyclopropyl-3-(2,6-dichlorophenyl)-1,2-oxazole-4-carboxylate] | – | – | 82% | 100 nM | 40% | –
9 | O=C(O)c1ccc(N2[C@@H]3CC[C@H]2C[C@@H](OC(=O)c2c(-c4c(Cl)cccc4Cl)noc2C2CC2)C3)cc1 [Compound I-34, 4-[(1R,3R,5S)-3-[5-Cyclopropyl-3-(2,6-dichlorophenyl)-1,2-oxazole-4-carbonyloxy]-8-azabicyclo[3.2.1]octan-8-yl]benzoic Acid] | – | – | 107% | 20 nM | 79% | –
10 | N#Cc1ccc(N2[C@@H]3CC[C@H]2C[C@@H](OC(=O)c2c(-c4c(Cl)cccc4Cl)noc2C2CC2)C3)cc1O [Compound I-53, (1R,3R,5S)-8-(4-cyano-3-hydroxyphenyl)-8-azabicyclo[3.2.1]octan-3-yl 5-cyclopropyl-3-(2,6-dichlorophenyl)-1,2-oxazole-4-carboxylate] | – | – | 81% | 251 nM | 58% | –
11 | COc1cc(N2[C@@H]3CC[C@H]2C[C@@H](OC(=O)c2c(-c4c(Cl)cccc4Cl)noc2C2CC2)C3)ccc1C(=O)O [Compound I-39, 4-[(1R,3R,5S)-3-[5-cyclopropyl-3-(2,6-dichlorophenyl)-1,2-oxazole-4-carbonyloxy]-8-azabicyclo[3.2.1]octan-8-yl]-2-methoxybenzoic acid] | – | 6.8 | 114% | 100 nM | 64% | –
12 | Cc1cc(C(=O)O)cc2sc(N3[C@@H]4CC[C@H]3C[C@@H](OC(=O)c3c(-c5ccccc5C(F)(F)F)noc3C3CC3)C4)nc12 [Compound I-61, 2-[(1R,3R,5S)-3-{5-cyclopropyl-3-[2-(trifluoromethyl)phenyl]-1,2-oxazole-4-carbonyloxy}-8-azabicyclo[3.2.1]octan-8-yl]-4-methyl-1,3-benzothiazole-6-carboxylic Acid] | – | 7.1 | 102% | 10 nM | 139% | –
13 | CS(=O)(=O)NC(=O)c1ccc(N2[C@@H]3CC[C@H]2C[C@@H](OC(=O)c2c(-c4c(Cl)cccc4Cl)noc2C2CC2)C3)c(F)c1 [Compound I-51, (1R,3R,5S)-8-[2-fluoro-4-(methanesulfonylcarbamoyl)phenyl]-8-azabicyclo[3.2.1]octan-3-yl 5-cyclopropyl-3-(2,6-dichlorophenyl)-1,2-oxazole-4-carboxylate] | – | – | 105% | 5.01 nM | 139% | –
14 | CS(=O)(=O)NC(=O)c1cc(F)c2nc(N3[C@@H]4CC[C@H]3C[C@@H](OC(=O)c3c(-c5c(Cl)cccc5Cl)noc3C3CC3)C4)sc2c1 [Compound I-6, (1R,3R,5S)-8-[4-fluoro-6-(methanesulfonylcarbamoyl)-1,3-benzothiazol-2-yl]-8-azabicyclo[3.2.1]octan-3-yl 5-cyclopropyl-3-(2,6-dichlorophenyl)-1,2-oxazole-4-carboxylate] | – | – | 109% | 15.8 nM | 110% | –
15 | Cn1cc(C(=O)O)c2ccc(N3[C@@H]4CC[C@H]3C[C@@H](OC(=O)c3c(-c5c(Cl)cccc5Cl)noc3C3CC3)C4)cc21 [Compound I-28, 6-[(1R,3R,5S)-3-[5-cyclopropyl-3-(2,6-dichlorophenyl)-1,2-oxazole-4-carbonyloxy]-8-azabicyclo[3.2.1]octan-8-yl]-1-methyl-1H-indole-3-carboxylic Acid] | – | – | 117% | 25.1 nM | 94% | –
16 | CCCS(=O)(=O)NC(=O)c1ccc(N2[C@@H]3CC[C@H]2C[C@@H](OC(=O)c2c(-c4c(Cl)cccc4Cl)noc2C2CC2)C3)cc1 [Compound I-45, (1R,3R,5S)-8-{4-[(propane-1-sulfonyl)carbamoyl]phenyl}-8-azabicyclo[3.2.1]octan-3-yl 5-cyclopropyl-3-(2,6-dichlorophenyl)-1,2-oxazole-4-carboxylate] | 8.6 | 8.3 | – | – | – | % Efficacy [3]: 130%
17 | CC(C)S(=O)(=O)NC(=O)c1ccc(N2[C@@H]3CC[C@H]2C[C@@H](OC(=O)c2c(-c4c(Cl)cccc4Cl)noc2C2CC2)C3)cc1 [Compound I-47, (1R,3R,5S)-8-{4-[(propane-2-sulfonyl)carbamoyl]phenyl}-8-azabicyclo[3.2.1]octan-3-yl 5-cyclopropyl-3-(2,6-dichlorophenyl)-1,2-oxazole-4-carboxylate] | 8.5 | 7.8 | – | – | – | % Efficacy [2]: 124%; % Efficacy [3]: 168%
18 | CC(C)c1onc(-c2c(Cl)cccc2Cl)c1COc1ccc(/C=C/c2cccc(C(=O)O)c2)c(Cl)c1 [GW4064] | – | – | – | – | – | EC50 [1]: 316 nM; Activity, % [1]: 100 ± 0%
19 | COC12CCC(c3noc(C4CC4)c3C(=O)O[C@@H]3C[C@H]4CC[C@@H](C3)N4c3nc4c(OC(F)(F)F)cc(C(=O)O)cc4s3)(CC1)CC2 [Compound I-58, 2-[(1R,3S,5S)-3-(5-cyclopropyl-3-{4-methoxybicyclo[2.2.2]octan-1-yl}-1,2-oxazole-4-carbonyloxy)-8-azabicyclo[3.2.1]octan-8-yl]-4-(trifluoromethoxy)-1,3-benzothiazole-6-carboxylic Acid] | >4.5 | >4.4 | – | – | – | % Efficacy [3]: 22%
20 | O=C(O)c1ccc(N2[C@@H]3CC[C@H]2C[C@@H](OC(=O)c2c(-c4c(Cl)cccc4Cl)noc2C2CC2)C3)c(F)c1 [Compound I-35, 4-[(1R,3R,5S)-3-[5-Cyclopropyl-3-(2,6-dichlorophenyl)-1,2-oxazole-4-carbonyloxy]-8-azabicyclo[3.2.1]octan-8-yl]-3-fluorobenzoic Acid] | – | – | 116% | 31.6 nM | 92% | –
21 | O=C(O)c1ccc(N2[C@@H]3CC[C@H]2C[C@@H](OC(=O)c2c(-c4c(Cl)cccc4Cl)noc2C2CC2)C3)c(C(F)(F)F)c1 [Compound I-38, 4-[(1R,3R,5S)-3-[5-cyclopropyl-3-(2,6-dichlorophenyl)-1,2-oxazole-4-carbonyloxy]-8-azabicyclo[3.2.1]octan-8-yl]-3-(trifluoromethyl)benzoic acid] | – | 6.6 | 112% | 79.4 nM | 80% | –
22 | CS(=O)(=O)NC(=O)c1ccc(N2[C@@H]3CC[C@H]2C[C@@H](OC(=O)c2c(-c4c(Cl)cccc4Cl)noc2C2CC2)C3)cc1 [Compound I-44, (1R,3R,5S)-8-[4-(methanesulfonylcarbamoyl)phenyl]-8-azabicyclo[3.2.1]octan-3-yl 5-cyclopropyl-3-(2,6-dichlorophenyl)-1,2-oxazole-4-carboxylate] | – | – | 117% | 6.31 nM | 124% | –
